Reference: US10934274B2, “Quinoline derivatives as TAM RTK inhibitors” (Qurient Co., Ltd., priority 2015, dated 2021)

How the values were obtained:
[1] = target: T1, TYRO3 (Homo sapiens, UniProt Q06418); assay: LanthaScreen Eu kinase binding assay, TYRO3; conditions: Tracer 236
T1 construct: purchased Life Technologies
T1 sequence (Q06418 41-890): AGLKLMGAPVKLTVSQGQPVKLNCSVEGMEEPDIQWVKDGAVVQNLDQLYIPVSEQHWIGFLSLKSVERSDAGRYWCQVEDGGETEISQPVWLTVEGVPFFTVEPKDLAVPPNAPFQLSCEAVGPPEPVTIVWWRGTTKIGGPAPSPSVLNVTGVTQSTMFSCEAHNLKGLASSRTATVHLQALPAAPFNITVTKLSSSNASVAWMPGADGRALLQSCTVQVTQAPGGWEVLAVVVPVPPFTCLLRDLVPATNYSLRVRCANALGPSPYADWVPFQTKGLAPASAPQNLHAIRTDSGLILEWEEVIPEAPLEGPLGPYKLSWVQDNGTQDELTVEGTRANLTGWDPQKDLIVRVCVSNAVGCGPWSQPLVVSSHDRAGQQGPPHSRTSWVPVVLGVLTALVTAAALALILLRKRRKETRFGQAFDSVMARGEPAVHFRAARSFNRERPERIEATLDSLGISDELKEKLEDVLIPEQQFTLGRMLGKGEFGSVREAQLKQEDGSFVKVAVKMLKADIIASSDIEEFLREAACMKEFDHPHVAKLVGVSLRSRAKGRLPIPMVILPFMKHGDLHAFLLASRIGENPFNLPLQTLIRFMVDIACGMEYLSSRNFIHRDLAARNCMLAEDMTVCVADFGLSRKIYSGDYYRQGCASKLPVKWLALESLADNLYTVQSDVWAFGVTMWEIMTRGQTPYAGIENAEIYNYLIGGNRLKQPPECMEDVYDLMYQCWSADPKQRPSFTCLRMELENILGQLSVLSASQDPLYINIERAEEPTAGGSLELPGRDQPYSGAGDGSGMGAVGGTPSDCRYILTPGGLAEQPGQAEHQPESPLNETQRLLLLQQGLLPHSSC
Description: (§1) LanthaScreen® Eu Kinase Binding assays were conducted at Life Technologies using the manufacturer's specifications for each kinase indicated.
(§2) Briefly, the principle behind this assay is based upon the binding and displacement of an Alexa Fluor 647-labeled tracer to the kinase of interest. Binding of the tracer to the kinase is detected using an EU-labeled anti-tag antibody. Simultaneous binding of both the tracer and antibody to the kinase gives rise to a FRET-signal. Binding of an inhibitor to the kinase competes for binding with the tracer, resulting in a loss of FRET-signal.
(§3) Binding Assay Protocol for AXL, Mer, Tyro3 and Met
(§4) A given compound was diluted in DMSO to make a stock compound solution. The stock compound solution was serially diluted over eight steps in DMSO. Each diluted compound solution in DMSO was diluted in kinase buffer. Afterwards four kinds of working solution were prepared. First, Tracer-Working solution consists of Tracer 236 and Kinase Buffer. Second, Axl, Mer, Tyro3 or Met/anti-GST-AB-Working solution contained one of the kinases Axl, Mer, Tyro3, Met or anti-GST-AB (=anti glutathione-S-transferase antibody) in Kinase Buffer. Third, anti-GST-AB-Working solution was made with anti-GST-AB and Kinase Buffer. Last, in the DMSO-Working solution DMSO was added to Kinase Buffer to a final concentration to 3%. Each of the four kinds of working solutions were separately added to the assay plate and then incubated for 1 h at room temperature. After incubation, the assay plate was measured with respect to the FRET-Signal with the EnVision (Perkin Elmer) using the program LanthaHTRF-Assay. Data evaluation was done in the Quattro Workflow software.
(§5) Table 1 summarises the results obtained for AXL, Mer and Tyro3-kinases binding assays; table 2 summarises the results obtained for the Met kinase binding assay.

[2] = target: T2, Met (Homo sapiens, UniProt P08581); assay: LanthaScreen Eu kinase binding assay, Met; conditions: Tracer 236, read-out: cMet kinase binding activity (Kd)
T2 construct: purchased Life Technologies
T2 sequence (P08581 25-1390): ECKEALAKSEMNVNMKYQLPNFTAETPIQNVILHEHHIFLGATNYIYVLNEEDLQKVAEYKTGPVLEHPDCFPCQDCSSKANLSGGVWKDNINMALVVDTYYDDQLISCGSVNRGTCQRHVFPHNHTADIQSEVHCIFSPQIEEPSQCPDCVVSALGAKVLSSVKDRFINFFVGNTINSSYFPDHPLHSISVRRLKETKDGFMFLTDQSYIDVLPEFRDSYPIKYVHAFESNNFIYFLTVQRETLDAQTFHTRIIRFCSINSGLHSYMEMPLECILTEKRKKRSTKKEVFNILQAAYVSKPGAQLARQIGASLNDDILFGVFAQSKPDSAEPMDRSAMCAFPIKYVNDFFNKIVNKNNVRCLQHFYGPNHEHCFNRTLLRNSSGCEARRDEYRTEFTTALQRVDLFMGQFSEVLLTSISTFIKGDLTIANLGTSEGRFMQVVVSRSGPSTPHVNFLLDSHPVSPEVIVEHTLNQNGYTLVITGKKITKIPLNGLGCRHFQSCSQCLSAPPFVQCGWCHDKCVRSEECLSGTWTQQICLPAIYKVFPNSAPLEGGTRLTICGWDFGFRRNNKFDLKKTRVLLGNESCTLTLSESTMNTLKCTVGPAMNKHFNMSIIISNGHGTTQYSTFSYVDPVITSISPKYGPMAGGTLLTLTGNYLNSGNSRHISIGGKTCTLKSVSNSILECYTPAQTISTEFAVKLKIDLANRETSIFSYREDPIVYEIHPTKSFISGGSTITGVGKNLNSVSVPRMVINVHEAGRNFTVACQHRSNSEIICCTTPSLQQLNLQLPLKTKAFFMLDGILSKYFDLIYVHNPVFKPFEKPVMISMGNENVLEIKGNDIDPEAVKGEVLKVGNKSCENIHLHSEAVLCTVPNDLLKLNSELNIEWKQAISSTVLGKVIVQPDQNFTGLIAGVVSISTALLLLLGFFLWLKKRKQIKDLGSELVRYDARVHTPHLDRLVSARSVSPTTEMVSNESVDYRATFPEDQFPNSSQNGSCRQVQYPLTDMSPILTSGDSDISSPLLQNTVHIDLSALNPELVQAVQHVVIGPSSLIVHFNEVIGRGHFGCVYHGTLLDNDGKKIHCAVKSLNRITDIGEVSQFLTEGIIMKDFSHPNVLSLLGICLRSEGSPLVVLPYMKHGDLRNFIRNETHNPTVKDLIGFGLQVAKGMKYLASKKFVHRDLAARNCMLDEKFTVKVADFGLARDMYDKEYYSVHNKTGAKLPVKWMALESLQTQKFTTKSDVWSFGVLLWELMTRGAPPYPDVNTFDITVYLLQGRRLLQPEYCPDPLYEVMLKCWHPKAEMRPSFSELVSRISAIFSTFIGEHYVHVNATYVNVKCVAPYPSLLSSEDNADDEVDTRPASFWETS
Description: as §1, §2, §3, §4, §5

[3] = target: T3, Mer (Homo sapiens, UniProt Q12866); assay: LanthaScreen Eu kinase binding assay, Mer; conditions: Tracer 236
T3 construct: purchased Life Technologies
T3 sequence (Q12866 21-999): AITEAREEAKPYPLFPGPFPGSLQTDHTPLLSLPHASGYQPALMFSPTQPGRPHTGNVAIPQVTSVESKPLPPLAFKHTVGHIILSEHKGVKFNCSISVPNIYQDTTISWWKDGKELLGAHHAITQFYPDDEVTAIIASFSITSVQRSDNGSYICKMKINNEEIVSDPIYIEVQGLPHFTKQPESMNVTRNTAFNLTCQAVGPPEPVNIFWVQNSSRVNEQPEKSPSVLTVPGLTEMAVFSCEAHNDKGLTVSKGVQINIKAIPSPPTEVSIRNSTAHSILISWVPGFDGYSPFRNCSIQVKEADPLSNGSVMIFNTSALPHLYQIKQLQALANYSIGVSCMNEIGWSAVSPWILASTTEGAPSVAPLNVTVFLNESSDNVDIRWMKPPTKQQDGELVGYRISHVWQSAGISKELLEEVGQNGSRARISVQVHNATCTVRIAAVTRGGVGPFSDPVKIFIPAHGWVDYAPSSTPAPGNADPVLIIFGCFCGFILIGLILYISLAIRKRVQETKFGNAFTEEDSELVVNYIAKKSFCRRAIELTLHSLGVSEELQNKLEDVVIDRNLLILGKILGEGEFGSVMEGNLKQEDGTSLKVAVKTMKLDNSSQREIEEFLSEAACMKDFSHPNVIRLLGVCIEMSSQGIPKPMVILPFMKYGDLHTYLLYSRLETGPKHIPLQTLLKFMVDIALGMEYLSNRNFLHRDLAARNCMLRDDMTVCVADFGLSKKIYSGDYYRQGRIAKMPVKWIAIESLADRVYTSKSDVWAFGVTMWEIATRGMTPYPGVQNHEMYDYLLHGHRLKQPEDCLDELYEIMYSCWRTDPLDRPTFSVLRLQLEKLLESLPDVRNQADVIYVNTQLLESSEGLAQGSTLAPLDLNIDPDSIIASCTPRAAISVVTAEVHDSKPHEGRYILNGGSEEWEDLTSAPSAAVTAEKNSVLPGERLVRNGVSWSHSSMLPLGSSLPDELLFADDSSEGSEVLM
Description: as §1, §2, §3, §4, §5

[4] = target: T4, Axl (Homo sapiens, UniProt P30530); assay: LanthaScreen Eu kinase binding assay, Axl; conditions: Tracer 236
T4 construct: purchased Life Technologies
T4 sequence (P30530 26-894): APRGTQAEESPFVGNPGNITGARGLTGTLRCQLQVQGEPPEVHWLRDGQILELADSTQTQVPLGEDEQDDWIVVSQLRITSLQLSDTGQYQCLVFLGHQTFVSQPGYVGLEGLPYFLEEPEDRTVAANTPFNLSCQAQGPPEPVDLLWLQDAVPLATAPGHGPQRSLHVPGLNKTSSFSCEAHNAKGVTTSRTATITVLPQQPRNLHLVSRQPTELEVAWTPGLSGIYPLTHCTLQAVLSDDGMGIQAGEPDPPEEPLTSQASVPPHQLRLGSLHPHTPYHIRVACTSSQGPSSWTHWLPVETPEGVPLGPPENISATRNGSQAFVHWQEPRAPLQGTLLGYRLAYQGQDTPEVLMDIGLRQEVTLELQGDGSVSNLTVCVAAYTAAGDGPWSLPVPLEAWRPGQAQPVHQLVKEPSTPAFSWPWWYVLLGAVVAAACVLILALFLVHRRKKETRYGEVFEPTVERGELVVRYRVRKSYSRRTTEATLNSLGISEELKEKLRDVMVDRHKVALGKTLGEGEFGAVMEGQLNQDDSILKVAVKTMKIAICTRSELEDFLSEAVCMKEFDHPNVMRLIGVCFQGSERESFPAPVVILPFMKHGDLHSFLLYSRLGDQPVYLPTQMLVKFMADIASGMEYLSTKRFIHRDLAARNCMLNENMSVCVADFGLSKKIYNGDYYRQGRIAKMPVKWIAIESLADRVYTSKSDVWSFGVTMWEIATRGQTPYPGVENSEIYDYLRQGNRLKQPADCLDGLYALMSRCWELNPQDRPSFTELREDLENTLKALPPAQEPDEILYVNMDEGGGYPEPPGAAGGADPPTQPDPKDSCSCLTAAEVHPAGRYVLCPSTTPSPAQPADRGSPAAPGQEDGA
Description: as §1, §2, §3, §4, §5

| SMILES | Kd [1] | Kd [2] | Kd [3] | Kd [4] |
| --- | --- | --- | --- | --- |
| CCOc1cn(-c2ncc(Cl)cc2CN(C)C)nc1C(=O)Nc1ccc(Oc2ccnc3cc(OC)c(OC)cc23)cn1 [Compound 138] | 100 to 1000 nM | < 100 nM | < 100 nM | 100 to 1000 nM |
| CCOc1cn(-c2ncccc2CN(C)C)nc1C(=O)Nc1ccc(Oc2ccnc3cc(OC)c(OC)cc23)cn1 [Compound 142] | 100 to 1000 nM | < 100 nM | < 100 nM | 100 to 1000 nM |
| CCOc1cn(-c2ncc(N)nc2C)nc1C(=O)Nc1ccc(Oc2ccnc3cc(OC)c(OC)cc23)cn1 [Compound 143] | < 100 nM | < 100 nM | < 100 nM | < 100 nM |
| CCOc1cnn(-c2cnc(C(F)(F)F)nc2)c1C(=O)Nc1ccc(Oc2ccnc3cc(OC)c(OC)cc23)cn1 [Compound 145] | ≥ 1000 nM | ≥ 1000 nM | ≥ 1000 nM | ≥ 1000 nM |
| CCOc1cn(-c2cnccc2C#N)nc1C(=O)Nc1ccc(Oc2ccnc3cc(OC)c(OC)cc23)cn1 [Compound 147] | < 100 nM | < 100 nM | < 100 nM | < 100 nM |
| CCOc1cn(-c2cnccn2)nc1C(=O)Nc1ccc(Oc2ccnc3cc(OC)c(OC)cc23)cc1F [Compound 152] | ≥ 1000 nM | ≥ 1000 nM | < 100 nM | ≥ 1000 nM |

Further lines, results first:

| Kd [1] | Kd [2] | Kd [3] | Kd [4] | SMILES |
| --- | --- | --- | --- | --- |
| 100 to 1000 nM | < 100 nM | < 100 nM | < 100 nM | CCOc1cn(-c2cnc(N)s2)nc1C(=O)Nc1ccc(Oc2ccnc3cc(OC)c(OC)cc23)cn1 [Compound 139] |
| 100 to 1000 nM | < 100 nM | < 100 nM | < 100 nM | CCOc1cn(-c2cnc(N)nc2)nc1C(=O)Nc1ccc(Oc2ccnc3cc(OC)c(OC)cc23)c(C)c1 [Compound 140] |
| 100 to 1000 nM | 100 to 1000 nM | < 100 nM | < 100 nM | CCOc1cn(-c2cnc(C(F)(F)F)nc2)nc1C(=O)Nc1ccc(Oc2ccnc3cc(OC)c(OC)cc23)cn1 [Compound 144] |
| < 100 nM | < 100 nM | < 100 nM | < 100 nM | CCOc1cn(-c2cnc(N)nc2)nc1C(=O)Nc1ccc(Oc2ccnc3cc(OC)c(OC)cc23)c(Cl)c1 [Compound 146] |
| < 100 nM | < 100 nM | < 100 nM | < 100 nM | CCOc1cn(-c2cnc(N)nc2C)nc1C(=O)Nc1ccc(Oc2ccnc3cc(OC)c(OC)cc23)cn1 [Compound 150] |
